This is an account of results in patent US4120892A, “Anionic naphthalene thioureido naphthalene sulfonic acids” (American Cyanamid Company, priority 1977, dated 1978).

Structures can show the parent of a compound that is named as a salt. Where two headings read alike, the source gives them in different places.

One experiment relates to complement system. The note with it: reported in the literature; cited from earlier work.
The conditions of experiment [1]: reported in The New England Journal of Medicine, 286, 808-812 (1972); cited from earlier work.
The subject of another experiment is human C1. As to the kind of experiment: Test, Code 026 (C1 inhibitor). The experiment is classed as biochemical. The note with it: activity in wells, two-fold serial dilution assay; higher well number indicates higher activity. The text has this:
(§1) An active inhibitor protects C2 from C1 and C4; (ii) Test, Code 035 (C3-C9 inhibitor -- This test determines the ability of the late components of human complement (C3-C9) to lyse EAC 142 in the presence of appropriate dilutions of the test compound. An active inhibitor protects EAC 142 from lysis by human C3-C9; (iii) Test, Code 036 (C-Shunt inhibitor) -- In this test human erythrocytes rendered fragile are lysed in autologous serum via the shunt pathway activated by cobra venom factor in the presence of appropriate dilutions of the test compound. Inhibition of the shunt pathway results in failure of lysis; (iv) Forssman Vasculitis Test -- Here, the well known complement dependent lesion, Forssman vasculitis, is produced in guinea pigs by intradermal injection of rabbit anti-Forssman antiserum. […]
(§2) With reference to Table I, guinea pigs weighing about 300 g were dosed intravenously (i.v.) or intraperitoneally (i.p.) with 200 mg/kg of the test compound dissolved in saline and adjusted to pH 7-8. […] Percent inhibition was calculated by comparison with simultaneous controls. […]

Experiment [2] has as its system late components of human complement (C3-C9). Put plainly: Test, Code 035 (C3-C9 inhibitor; C-Late). Format: cell-based. The settings on record: activity in wells, two-fold serial dilution assay; higher well number indicates higher activity.
Description: as §1, §2

The next experiment deals with shunt pathway. Put plainly: Test, Code 036 (C-Shunt inhibitor). Format: cell-based, human. The note with it: activity in wells, two-fold serial dilution assay; higher well number indicates higher activity.
Description: as §1, §2

In another experiment the test system is whole complement. Put plainly: In vivo complement inhibition in guinea pigs (serum whole complement, capillary tube assay). The note with it: Cavia porcellus, ip, guinea pig, intraperitoneal.
Description: An active inhibitor protects C2 from C1 and C4; (ii) Test, Code 035 (C3-C9 inhibitor -- This test determines the ability of the late components of human complement (C3-C9) to lyse EAC 142 in the presence of appropriate dilutions of the test compound. An active inhibitor protects EAC 142 from lysis by human C3-C9; (iii) Test, Code 036 (C-Shunt inhibitor) -- In this test human erythrocytes rendered fragile are lysed in autologous serum via the shunt pathway activated by cobra venom factor in the presence of appropriate dilutions of the test compound. Inhibition of the shunt pathway results in failure of lysis; (iv) Forssman Vasculitis Test -- Here, the well known complement dependent lesion, Forssman vasculitis, is produced in guinea pigs by intradermal injection of rabbit anti-Forssman antiserum. The lesion is measured in terms of diameter, edema and hemorrhage and the extent to which a combined index of these is inhibited by prior intraperitoneal injection of the test compound at 200 mg/kg is then reported, unless otherwise stated; (v) Forssman Shock Test -- Lethal shock is produced in guinea pigs by an i.v. injection of anti-Forssman antiserum and the harmonic mean death time of treated guinea pigs is compared with that of simultaneous controls; (vi) Complement Level Reduction Test -- In this test, the above dosed guinea pigs, or others, are bled for serum and the complement level is determined in undiluted serum by the capillary tube method of U.S. Pat. No. 3,876,376 and compared to undosed control guinea pigs; and (vii) Cap 50 Test -- Here, appropriate amounts of the test compound are added to a pool of guinea pig serum in vitro, after which the undiluted serum capillary tube assay referred to above is run. The concentration of compound inhibiting 50% is reported.
as §2

With “8-(3-benzamido-4-methylbenzamido)naphthalene-1,3,5-trisulfonic acid [Suramin]”, in the experiment with complement system, the “anticomplementary effect / complement inhibition” value is reported as “competitive inhibitor of the complement system”. In addition, in experiment [1], the “treatment of hereditary angioneurotic edema” value (“treatment” for short) is “used with success in the treatment of hereditary angioneurotic edema”.

What is called inhibition is the change of the read-out against control, counted positive when it falls. As to `O=S(=O)(O)c1cc(NC(=S)Nc2cc(S(=O)(=O)O)c3cc(NC(=S)Nc4cc(S(=O)(=O)O)cc5cc(S(=O)(=O)O)cc(S(=O)(=O)O)c45)cc(S(=O)(=O)O)c3c2)c2c(S(=O)(=O)O)cc(S(=O)(=O)O)cc2c1` [8,8'-[4,8-Disulfo-2,6-naphthylenebis(2-thioureylene)]-di-1,3,6-naphthalenetrisulfonic acid octasodium salt], in the experiment with human C1, the “Cl 026 Wells” value was “+5 Wells”. The “C-Late 035 Wells” value in experiment [2] is recorded as “+2 Wells”. For the same compound, in the experiment on shunt pathway, the “Shunt Inhibition 036 Wells” value is on record as “+2 Wells”. Further, the inhibition at 200 mg/kg in the experiment on whole complement (0.5 h, 30 minutes, read-out: In Vivo Activity (Guinea Pig) % Inhibition, Intraperitoneal, 30 minutes) was -86%; with whole complement (1 h, 60 minutes, read-out: In Vivo Activity (Guinea Pig) % Inhibition, Intraperitoneal, 60 minutes), -84%; with whole complement (2 h, 120 minutes, read-out: In Vivo Activity (Guinea Pig) % Inhibition, Intraperitoneal, 120 minutes), -93%.

As for `NC[C@H]1CC[C@H](C(=O)O)CC1` [tranexamic acid], the “treatment” value in experiment [1] is listed as “used with success in the treatment of hereditary angioneurotic edema”.

heparin: the “anticomplementary effect / complement inhibition” value in the experiment on complement system was “anticomplementary effect”.

Regarding `NCCCCCC(=O)O` [epsilon-aminocaproic acid], the “treatment” value in experiment [1] was “used with success in the treatment of hereditary angioneurotic edema”.

Consider `Nc1ccc2cc(S(=O)(=O)O)cc(O)c2c1N=Nc1ccc(NC(=O)Nc2ccc(N=Nc3c(N)ccc4cc(S(=O)(=O)O)cc(O)c34)c(S(=O)(=O)O)c2)cc1S(=O)(=O)O` [chlorazol fast pink, 3,3'-ureylenebis-[6-(2-amino-8-hydroxy-6-sulfo-1-naphthylazo)]benzenesulfonic acid, tetrasodium salt], for which the “anticomplementary effect / complement inhibition” value with complement system is reported as “anticomplementary effect”.
